Experimental data from patent US10201586B2 (dated 2019).

How the values were obtained:
[1] = plasma stability in human plasma; type: in vitro ADME; details: 24 hour
[2] = pharmacokinetic analysis in mice; type: in vivo, mouse; details: C57B16 mice, 1 mg/kg (peptide content)
Method: The peptides were administered intravenously to C57B16 mice at a dose of 10 mg/kg. Three biological samples were analyzed for the presence of peptide at each time point.
For pharmacokinetic analysis, C57B16 mice were treated with various TFPI-binding peptides conjugated to different molecular weight PEGs and HSA. The dose of the peptide-PEG and peptide-HSA conjugates was normalized to 1 mg/kg (peptide content). […] Blood draws were taken from three animals (retro bulbar) and collected in heparinized vials at several time points following administration. The samples were centrifuged, and the peptide-conjugate content in plasma was quantified by ELISA.

[3] = test system: FVIII knock-out mice; details: 1 mg/kg JBT2329 without ADVATE
[4] = test system: human whole blood clot formation; assay: rotation thromboelastography (ROTEM); details: Hem A (FVIII-inhibited) human whole blood
Method: Continuous visco-elastic assessment of human whole blood clot formation and firmness was performed by rotation thromboelastography with whole blood preparations in the presence or absence of peptides.
Recordings were made using a ROTEM thromboelastography coagulation analyzer (Pentapharm, Munich, Germany) at 37° C. Briefly, blood is added into a disposable cuvette in a heated cuvette holder. A disposable pin (sensor) is fixed on the tip of a rotating axis. The axis is guided by a high precision ball bearing system and rotates back and forth. The axis is connected with a spring for the measurement of elasticity. The exact position of the axis is detected by the reflection of light on a small mirror on the axis. The loss of elasticity when the sample clots leads to a change in the rotation of the axis. The data obtained are computer analyzed and visualized in a thromboelastogram. […] An elasticity of approximately zero is observed before clot formation begins. Mirror image traces above and below the zero line indicate the effect of clot formation on the rotation of the axis.
The analytical set-up was as follows: to 20 μL of test sample or control, 300 μL of pre-warmed (37° C.) CTI treated citrated whole blood was added, followed by 20 μL of a 1:15 dilution of TF PRP reagent containing recombinant human tissue factor (rTF, 3 pM) (TS40, Thrombinoscope BV, Maastricht, The Netherlands).
The thromboelastographic parameters of clotting time (CT), clot formation time (CFT) and maximum clot firmness (MCF) were recorded in accordance with the manufacturer's instructions. CT is defined as the time from the start of measurement to the start of clot formation. CFT is defined as the time from the start of clot formation until an amplitude of 20 mm is reached. MCF is the maximum difference in amplitude between the two traces during the assay. The first derivative of the data of the thromboelastogram are plotted to obtain a graph of velocity (mm/s) against time (s). From this graph, the maximum velocity (maxV) is determined. The time at which the maximum velocity is obtained (maxV-t) is also determined.

[5] = test system: FIX knock-out mice; assay: tail-tip bleed model; type: in vivo, mouse
Method: The amount of blood was determined gravimetrically.
JBT2329 also was tested in a FIX knock-out tail-tip bleed mouse model, which is a clinically-relevant model for hemophilia B human patients. The methodology was substantially similar to that described above with respect to the FVIII knock-out model. Instead of ADVATE, a recombinant FIX (rFIX) served as a reference. Median total blood loss in buffer-treated animals was 935 mg. Median total blood loss in animals treated with a murine anti-TFPI antibody (maTFPI) was 774 mg. Median total blood loss was reduced further when the animals received combined treatment of maTFPI and rFIX.

[6] = test system: C57B1/6NCr1 mice; assay: nail clip blood loss study; type: in vivo, mouse

## Ac-FQSKpNVHVDGYFERL-Aib-AKLC(PEG)-NH2 [JBT2329]
[1]
  Human Plasma Stability, 24 hour (%): 67.3%
[2]; intravenous
  HL_λ_z [h] (intravenous): 19.8 h
[2]; s.c. AUC vs i.v. AUC
  Bioavailability [%] (s.c.): 73.3%
[3]
  median total blood loss vs buffer: did not reduce median total blood loss
[4]
  coagulation parameters: restored prolonged coagulation parameters in Hem A blood
[5]; 1 mg/kg JBT2329 alone (p=0.321)
  median total blood loss vs buffer: did not lead to a significant reduction in median total blood loss
[5]; JBT2329 1 mg/kg or 0.1 mg/kg in combination with 10 IU/kg rFIX
  Efficacy vs buffer at a […] level: statistically significant superiority over buffer
[6]; 0.1 mg/kg i.v.
  blood loss, second 30 minute period: 18.7 µL
  reduction of blood loss vs vehicle, first 30 minutes: about 50%
  reduction of blood loss vs vehicle, second 30 minute period: about 64%
  reduction of total blood loss over 60 minutes vs vehicle: ~60%
  total blood loss over 60 minutes: 34.7 µL
[6]; 0.1 mg/kg i.v., naive C57BL6 mice
  blood loss, first 30 minutes: 16.0 µL
[6]; 1.0 mg/kg i.v.
  blood loss, entire 60 minute collection period: 22.8 µL
  blood loss, first 30 minutes: 12.2 µL
  blood loss, second 30 minute period: 10.6 µL
[6]; 10 mg/kg subcutaneous
  reduction of blood loss during 60 minutes vs vehicle: approximately 58%
